# Measured values taken from patent US20130053243A1, “PLANTS HAVING INCREASED TOLERANCE TO HERBICIDES” (BASF SE, priority 2010, published 2013).
# pIC50, pKi: −log10 of the molar value.
# Key:
# Chlamydomonas HPPD1 = Chlamydomonas HPPD1 (Chlamydomonas reinhardtii, UniProt A0A2K3DET7); assay: HPPD activity assay, wildtype enzyme; type: biochemical; details: calculated from IC50 with Cheng-Prusoff equation, read-out: dissociation constant Ki
# Experimental: HPPD produces homogentisic acid and CO2 from 4-hydroxyphenylpyruvate (4-HPP) and O2. The activity assay for HPPD is based on the analysis of homogentisic acid by reversed phase HPLC.
# The assay mixture can contain 150 mM potassium phosphate buffer pH 7.0, 50 mM L-ascorbic acid, 1 μM FeSO4 and 7 μg of purified enzyme in a total volume of 1 ml.
# Inhibitors are dissolved in DMSO (dimethylsulfoxide) to a concentration of 20 mM or 0.5 mM, respectively. From this stock solution serial five-fold dilutions are prepared in DMSO, which are used in the assay. The respective inhibitor solution accounts for 1% of the assay volume.
# After a preincubation of 30 min the reaction is started by adding 4-HPP to a final concentration of 0.1 mM. The reaction is allowed to proceed for 120 min at room temperature. The reaction is stopped by addition of 100 μl of 4.5 M phosphoric acid.
# Activities are normalized by setting the uninhibited enzyme activity to 100%. IC50 values are calculated using non-linear regression.
# The assay mixture can contain 150 mM potassium phosphate buffer pH 7.0, 50 mM L-ascorbic acid, 100 μM Catalase (Sigma-Aldrich), 1 μM FeSO4 and 0.2 units of purified HPPD enzyme in a total volume of 505 μl. […]
# HGA is detected electrochemically at 750 mV (mode: DC; polarity: positive) and quantified by integrating peak areas (Empower software; Waters).
# Inhibitors are dissolved in DMSO (dimethylsulfoxide) to a concentration of 0.5 mM. […] IC50 values are calculated using non-linear regression.
# Using methods which are described in the above examples or well known in the art, purified, recombinant wildtype HPPD enzymes are characterized with respect to their kinetic properties and sensitivity towards HPPD inhibiting herbicides. Apparent michaelis constants (Km) and maximal reaction velocities (Vmax) are calculated by non-linear regression with the software GraphPad Prism 5 (GraphPad Software, La Jolla, USA) using a substrate inhibition model. […] Weighted means (by standard error) of Km and IC50 values are calculated from at least three independent experiments.
# [1] = system: Chlamydomonas strain CMr04; assay: Growth inhibition of Chlamydomonas strains (tolerance); type: cell-based, Chlamydomonas reinhardtii; details: read-out: IC50 of growth inhibition
# Experimental: (§1) Algae cells of Chlamydomonas reinhardtii strains CC-503 and CC-1691 (Duke University, Durham, USA) are propagated in TAP medium (Gorman and Levine (1965) PNAS 54: 1665-1669) by constant shaking at 100 rpm, 22° C. and 30 μmol Phot*m^−2*[…] light illumination. Scenedesmus obliquus (University of Gottingen, Germany) are propagated in algae medium as described (Boger and Sandmann, (1993) In: Target assays for modern herbicides and related phytotoxic compounds, Lewis Publishers) under same culturing conditions as mentioned for Chlamydomonas. Compound screening is performed at 450 μmol Phot*m^−2*[…] illumination.
# (§2) Sensitive strains of Chlamydomonas reinhardtii or Scenedesmus obliquus (Tables 14, 15) are mutated with 0.14 […] (EMS) for 1 h as described by Loppes (1969, Mol Gen Genet. 104: 172-177) Tolerant strains are identified by screening of mutagenized cells on solid nutrient solution plates containing “coumarone-derivative herbicides” or other HPPD inhibiting herbicides at wildype-lethal concentrations. Examples of the data obtained are depicted in Table 16 and FIG. 2.
# [2] = system: Chlamydomonas strain CMr13; assay: as above; type: cell-based, Chlamydomonas reinhardtii; details: read-out: IC50 of growth inhibition
# Experimental: as §1, §2
# [3] = system: transgenic soybean plants, event AV3639 (AtHPPD); assay: Greenhouse spray test, transgenic soybean T0 cuttings; type: in vivo, Glycine max; details: two weeks after treatment, scale 0 (no injury) to 9 (complete death)
# Experimental: (§3) Transgenic plants expressing heterologous HPPD or HST enzymes are tested for tolerance against coumarone-derivative herbicides in greenhouse experiments.
# (§4) For post emergence treatment, the test plants are first grown to a height of 3 to 15 cm, depending on the plant habit, and only then treated with the herbicides. For this purpose, the test plants are either sown directly and grown in the same containers, or they are first grown separately and transplanted into the test containers a few days prior to treatment.
# (§5) For testing of T0 plants, cuttings can be used. In the case of soybean plants, an optimal shoot for cutting is about 7.5 to 10 cm tall, with at least two nodes present. Each cutting is taken from the original transformant (mother plant) and dipped into rooting hormone powder (indole-3-butyric acid, IBA). The cutting is then placed in oasis wedges inside a bio-dome. Wild type cuttings are also taken simultaneously to serve as controls. The cuttings are kept in the bio-dome for 5-7 days and then transplanted to pots and then acclimated in the growth chamber for two more days. Subsequently, the cuttings are transferred to the greenhouse, acclimated for approximately 4 days, and then subjected to spray tests as indicated. Depending on the species, the plants are kept at 10-25° C. or 20-35° C. The test period extends over 3 weeks. During this time, the plants are tended and their response to the individual treatments is evaluated. Herbicide injury evaluations are taken at 2 and 3 weeks after treatment. Plant injury is rated on a scale of 0 to 9, 0 being no injury and 9 being complete death.
# [4] = system: transgenic soybean plants, event AV3641 (AtHPPD); assay: as above; type: in vivo, Glycine max; details: two weeks after treatment, scale 0 (no injury) to 9 (complete death)
# Experimental: as §3, §4, §5
# [5] = system: transgenic soybean plants, event AV3646 (CrHPPD1); assay: as above; type: in vivo, Glycine max; details: two weeks after treatment, scale 0 (no injury) to 9 (complete death)
# Experimental: as §3, §4, §5
# [6] = system: transgenic soybean plants, event AV3653 (AtHPPD); assay: as above; type: in vivo, Glycine max; details: two weeks after treatment, scale 0 (no injury) to 9 (complete death)
# Experimental: as §3, §4, §5
# [7] = system: transgenic soybean plants, event LG4564; assay: as above; type: in vivo, Glycine max; details: event LG4564, CrHPPD2 (head unclear), two weeks after treatment, scale 0 (no injury) to 9 (complete death)
# Experimental: as §3, §4, §5
# [8] = system: transgenic soybean plants, event LG4628 (CrHPPD2); assay: as above; type: in vivo, Glycine max; details: two weeks after treatment, scale 0 (no injury) to 9 (complete death)
# Experimental: as §3, §4, §5
# Chlamydomonas HPPD1, sequence (A0A2K3DET7 entry or part of it): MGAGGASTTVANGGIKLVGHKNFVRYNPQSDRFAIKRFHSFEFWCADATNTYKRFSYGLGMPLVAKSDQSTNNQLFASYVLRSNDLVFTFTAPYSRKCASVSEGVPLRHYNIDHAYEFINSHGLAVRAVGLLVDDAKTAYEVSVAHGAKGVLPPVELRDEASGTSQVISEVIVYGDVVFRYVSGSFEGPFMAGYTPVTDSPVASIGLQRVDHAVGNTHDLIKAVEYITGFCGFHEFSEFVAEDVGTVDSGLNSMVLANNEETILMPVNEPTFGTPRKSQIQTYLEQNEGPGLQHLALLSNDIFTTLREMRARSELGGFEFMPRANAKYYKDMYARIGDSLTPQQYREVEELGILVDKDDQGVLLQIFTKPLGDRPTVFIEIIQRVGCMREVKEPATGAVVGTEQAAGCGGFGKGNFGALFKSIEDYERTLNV
compound,measurement,setting,value
"CC1=NOC(c2c(Cl)ccc(C3=C(O)c4ncccc4N(CC(F)F)S3(=O)=O)c2Cl)C1 (stereo not drawn) [Inhibitor 1, 3-[2,4-dichloro-3-(3-methyl-4,5-dihydroisoxazol-5-yl)phenyl]-1-(2,2-difluoroethyl)-2,2-dioxo-pyrido[3,2-c]thiazin-4-ol]",pKi,Chlamydomonas HPPD1,7.54
same,pIC50,[1],< 3.00
same,pIC50,[2],3.09
same,Injury evaluation (plant injury rating),[3]; 50 g/ha,3
same,Injury evaluation (plant injury rating),[3]; 100 g/ha,2
same,Injury evaluation (plant injury rating),[3]; 200 g/ha,3
same,Injury evaluation (plant injury rating),[4]; 50 g/ha,2
same,Injury evaluation (plant injury rating),[4]; 100 g/ha,2
same,Injury evaluation (plant injury rating),[4]; 200 g/ha,3
same,Injury evaluation (plant injury rating),[5]; 50 g/ha,3
same,Injury evaluation (plant injury rating),[5]; 100 g/ha,4
same,Injury evaluation (plant injury rating),[5]; 200 g/ha,4
same,Injury evaluation (plant injury rating),[6]; 50 g/ha,3
same,Injury evaluation (plant injury rating),[6]; 100 g/ha,3
same,Injury evaluation (plant injury rating),[6]; 200 g/ha,3
same,Injury evaluation (plant injury rating),[7]; 50 g/ha,3
same,Injury evaluation (plant injury rating),[7]; 100 g/ha,3
same,Injury evaluation (plant injury rating),[7]; 200 g/ha,4
same,Injury evaluation (plant injury rating),[8]; 50 g/ha,4
same,Injury evaluation (plant injury rating),[8]; 100 g/ha,3
same,Injury evaluation (plant injury rating),[8]; 200 g/ha,4
"Cc1c(C(=O)c2cnn(C)c2O)ccc(S(C)(=O)=O)c1C1=NOCC1 [Topramezone, reference compound]",pKi,Chlamydomonas HPPD1,7.42
same,pIC50,[1],3.41
same,pIC50,[2],3.70
same,Injury evaluation (plant injury rating),[3]; 6.25 g/ha,4
same,Injury evaluation (plant injury rating),[3]; 12.5 g/ha,5
same,Injury evaluation (plant injury rating),[4]; 6.25 g/ha,4
same,Injury evaluation (plant injury rating),[4]; 12.5 g/ha,4
same,Injury evaluation (plant injury rating),[5]; 6.25 g/ha,6
same,Injury evaluation (plant injury rating),[5]; 12.5 g/ha,7
same,Injury evaluation (plant injury rating),[6]; 6.25 g/ha,2
same,Injury evaluation (plant injury rating),[6]; 12.5 g/ha,3
same,Injury evaluation (plant injury rating),[7]; 6.25 g/ha,3
same,Injury evaluation (plant injury rating),[7]; 12.5 g/ha,4
same,Injury evaluation (plant injury rating),[8]; 6.25 g/ha,5
same,Injury evaluation (plant injury rating),[8]; 12.5 g/ha,6
